Entries after “also recorded” stand apart in the source; their conditions may differ. Peptide text beside a SMILES is read from it.
Tests used:
[1] = tested on: A549 human lung carcinoma cells; experiment: phosphonucleolin cytoblot, suppressors of G2-arresting agents; type: cell-based; conditions: for prevention of nocodazole mitotic arrest: simultaneous addition with 250 nM nocodazole, 14 μM ICRF-193, 20 μM roscovitine
Procedure: (§1) FIG. 11. Cytoblots can be used to screen for small molecule suppressors of anti-proliferative agents using the presence of phosphonucleolin, and for small molecules that induce exit from mitosis using the absence of phosphonucleolin. […] A549 human lung carcinoma cells were seeded at a density of 4000 cells in 40 μL of DMEM+ in each well of an opaque 384-well plate and incubated for 24 hours at 37° C. with 5% CO2. […] Cells were then incubated for 18 hours at 37° C. with 5% CO2 and a phosphonucleolin cytoblot was performed. (c) HeLaS3 cells were seeded at a density of 4000 cells in 40 μL of DMEM+ in each well of an opaque 384-well plate and incubated for 24 hours at 37° C. with 5% CO2. Cells were either left untreated or treated with 554 nM nocodazole for 14 hours to arrest cells in mitosis. Roscovitine was then added to the final concentrations indicated in a final volume of 50 μL and cells were incubated for 4 hours at 37° C. with 5% CO2. Finally, BrdU was added to a final concentration of 10 μM to those wells that were assayed for BrdU incorporation, and the cells incubated for an additional 6 hours at 37° C. with 5% CO2. BrdU and phosphonucleolin cytoblots were performed. […] HeLa cells were seeded at a density of 4000 cells per well in 40 μL of DMEM+ in each well of an opaque 384 well plate and incubated overnight at 37° C. with 5% CO2. Cells were then treated with either an equivalent amount of DMSO or nocodazole to a final concentration of 415 nM and the cells incubated for an additional 14 hours at 37° C. with 5% CO2. Roscovitine was then added to the final concentrations indicated and final volume of 50 μL and cells incubated for 4 hours 37° C. with 5% CO2. Finally, BrdU was added to a final concentration of 10 μM to those wells the be assayed for BrdU incorporation and the cells incubated for an additional 6 hours at 37° C. with 5% CO2. BrdU and TG-3 cytoblots were performed (see Protocols). Wells are shown magnified 4×. […] A549 human lung carcinoma cells were seeded at a density of 4000 cells in 40 uL of DMEM+ in each well of an opaque 384 well plate and incubated for 24 hours at 37° C. with 5% CO2. […] Cells were then incubated for 18 hours at 37° C. with 5% CO2 and a TG-3 cytoblot performed (see Protocol).
These purine analogs are known to be non-specific competitive inhibitors of 5′-adenosine triphosphate binding and therefore are likely to inhibit a wide range of kinases in the cell.

HeLaS3 cells = experiment: BrdU and phosphonucleolin cytoblots in nocodazole-arrested HeLa cells; type: cell-based, human
Procedure: as §1
It should also be possible to find small molecules that induce exit from mitosis, resulting in a reduction in phosphonucleolin levels. As the nocodazole-induced arrest of cells in mitosis requires cyclin-dependent kinase (CDK) activity for the activation of the spindle assembly checkpoint, inhibition of CDK activity should suppress nocodazole-induced mitotic arrest (FIG. 11a). […]

[2] = tested on: Mv1Lu mink lung epithelial cells; experiment: 384 well anti-BrdU cytoblot; type: cell-based; conditions: 384-well plate; antiproliferative agents 24 hours, then 10 μM BrdU 16 hours (FIG. 2)
Excerpt: FIG. 1. An immunodetection assay for DNA synthesis in high density arrays of mammalian cells. (a) Cartoon depiction of an anti-BrdU cytoblot. The thymine analog 5-bromodeoxyuridine (BrdU) is incorporated into the DNA of cells that are actively replicating their DNA. The cells are in the well, and BrdU is detected with a two step antibody binding procedure. The second antibody is conjugated to the enzyme horseradish peroxidase. In the presence of the chemiluminescent substrate luminol as well as hydrogen peroxide, light of wavelength 428 nm is generated. The light emission can be detected by exposing the plate to film. (b) A cytoblot can detect TGF-β's ability to prevent BrdU incorporation in mink lung epithelial cells. 2000 Mv1Lu mink lung epithelial cells were seeded in each well of a white, opaque 384 well plate. The cells were seeded in the indicated concentrations of TGF-β in 50 μL of DMEM with 1% fetal bovine serum (FBS), 100 units/mL penicillin G sodium, 100 μg/mL streptomycin sulfate and 100 μM each of the amino acids alanine, aspartic acid, glutamine, glycine, asparagine and proline (referred to throughout as 1% mink medium) and allowed to incubate at 37° C. with 5% CO2. After 16 hours, 5.5 μL of 100 μM BrdU in 1% mink medium was added to each well, for a final concentration of 10 μM BrdU. The cells were incubated at 37° C. with 5% CO2 for an additional 16 hours and then an anti-BrdU cytoblot protocol was performed (see protocol). Wells shown are magnified 4×.
FIG. 2. A cytoblot can detect the ability of numerous antiproliferative agents to inhibit BrdU incorporation. 2000 Mv1Lu mink lung epithelial cells were seeded in each well of a white, opaque 384 well plate. The cells were seeded in 40 μL of 1% mink media and immediately 40 μL of 2× stocks of the reagents shown was added to each well and the cells were allowed to incubate at 37° C. with 5% CO2. After 24 hours, 9 μL of 100 μM BrdU in 1% mink medium was added to each well, for a final concentration of 10 μM BrdU. The cells were incubated at 37° C. with 5% CO2 for an additional 16 hours and then an anti-BrdU cytoblot protocol was performed (see protocol). Wells shown are magnified 2.5×.
The ability of the cytoblot assay to detect changes in DNA synthesis was tested by measuring the incorporation of 5-bromodeoxyuridine (BrdU, Sigma Corporation, St. Louis, Mo., Cat.# B9285) into DNA in the presence or absence of the anti-mitogen transforming growth factor β (TGF-β). Mink lung cells, which are responsive to TGF-β, were seeded into each well of an opaque, white 384-well plate. The cells were subsequently treated with varying concentrations of TGF-β for 16 hours and then with 10 μM BrdU for 16 hours. […] The following protocols provide experimental detail. […]

[3] = tested on: hyperacetylated histone H4; experiment: 384 well anti-acetylated histone H4 cytoblot; type: cell-based, human; conditions: A549 cells; 300 nM trichostatin A, 100 nM trapoxin, 24 hours
Procedure: FIG. 5. An immunodetection assay for the accumulation of hyperacetylated histone H4 in high density arrays of mammalian cells. A549 human lung carcinoma cells were seeded at a density of 4000 cells in 40 μL of DMEM+ in each well of an opaque 384 well plate and incubated overnight at 37° C. with 5% CO2. Cells were either untreated, washed once and treated with 0.5% serum, 80 pM TGF-β, 300 nM trichostatin A, 100 nM trapoxin or 250 nM nocodazole and incubated for 24 hours at 37° C. with 5% CO2 in a final volume of 50 μL. A cytoblot was performed (see Protocol) and the presence of the hyperacetylated form of histone H4 was detected using a two step antibody binding procedure using an anti-acetylated H4 antibody and a secondary antibody conjugated to the enzyme horseradish peroxidase. Wells are shown magnified 25×.
Any post-translational modification that can be recognized by an antibody (or ligand) may be used in a cytoblot screen. […] In addition, antibodies against the phosphorylated form of nucleolin (FIG. 6a) or histone H3 (FIG. 6b) were used to detect the presence of phosphonucleolin or phosphohistone H3 respectively, both of which server as biochemical markers of the mitotic state of cells (Anderson et al. Experimental Cell Research 238: 498-502 1998; Vincent et al. J. Cell. Biol. 132:413-425. 1996)). The following protocol provides experimental detail. […]

[4] = tested on: mink lung epithelial cells; experiment: BrdU cytoblot assay for S-phase progression; type: cell-based
Excerpt: BRDU CYTOBLOT ASSAY: The BrdU cytoblot assay for S-phase progression was described previously by Stockwell et al. (Chem. Biol. 6:71, 1999; see also, U.S. Patent Application Ser. No. 60/094,305, incorporated herein by reference).
Compounds that mimic TGFβ activity would be expected to be capable of inducing cell cycle arrest or apoptosis, and in particular to block DNA replication, in responding cells. We therefore used an S-phase progression cytoblot assay to test whether our compounds could inhibit 5-bromodeoxyuridine (BrdU) incorporation into mink epithelial cells. […] Both compounds were therefore classified as true TGFβ mimics.

CC[C@H](CO)Nc1nc(NCc2ccccc2)c2ncn(C(C)C)c2n1 [roscovitine]
prevention of nocodazole mitotic arrest [1]: prevented this mitotic arrest
exit from nocodazole-induced arrest (disappearance of phosphonucleolin) (HeLaS3 cells; nocodazole 14 hours, then roscovitine): cells exited from the nocodazole-induced arrest; also recorded: suppresses only the accumulation of phosphonucleolin
BrdU incorporation after roscovitine (HeLaS3 cells; nocodazole 14 hours, then roscovitine, 10 μM BrdU 6 hours): did not begin to incorporate BrdU

Nc1ncc2[nH]cnc2n1 [2-aminopurine]
suppression of ICRF-193-induced G2 arrest ([1]; 1 mM 2-aminopurine or 2 mM caffeine with ICRF-193 and 250 nM nocodazole, 18 hours): prevented the arrest in response to ICRF-193; also recorded: suppress a DNA damage-independent topoisomerase inhibitor-induced G2-checkpoint arrest

O=C(CCCCC[C@@H]1NC(=O)[C@H]2CCCCN2C(=O)[C@H](Cc2ccccc2)NC(=O)[C@H](Cc2ccccc2)NC1=O)C1CO1 (stereo partly shown) [trapoxin, trapoxin A] (HELM PEPTIDE1{F.F.[O=C([C@H]1CCCCN1[*:1])[*:2]].[O=C(CCCCC[C@H](N[*:1])C(=O)[*:2])C1CO1]}$PEPTIDE1,PEPTIDE1,1:R1-4:R2$$$V2.0)
BrdU incorporation [2]: effectively prevent BrdU incorporation
acetylation of histone H4 [3]: increase in the acetylation of histone H4

COC(=O)Nc1nc2ccc(C(=O)c3cccs3)cc2[nH]1 [nocodazole]
mitotic arrest (phosphonucleolin) ([1]; 250 nM nocodazole, 18 hours): arrested in mitosis
BrdU incorporation [2]: effectively prevent BrdU incorporation
accumulation of phosphonucleolin (HeLaS3 cells; HeLa cells, nocodazole 415 nM): induces the accumulation of phosphonucleolin
incorporation of BrdU (HeLaS3 cells; HeLa cells, nocodazole 415 nM): prevents the incorporation of BrdU

CuCl2 [Cu^2+]
BrdU incorporation [4]: inhibition of BrdU incorporation

CC(/C=C/C(=O)NO)=C\[C@@H](C)C(=O)c1ccc(N(C)C)cc1 [trichostatin, trichostatin A]
acetylation of histone H4 [3]: increase in the acetylation of histone H4

ICRF-193
prevention of nocodazole mitotic arrest [1]: prevented this mitotic arrest

Reference: patent publication US20080311589A1, “METHOD OF HIGH-THROUGHPUT SCREENING OF MOLECULES AND COMPOUNDS FOR THEIR EFFECTS ON BIOLOGICAL AND CHEMICAL PROCESSES” (priority 1999, published 2008)
